Results on 10 molecules are retold here after patent publication US20260327211A1, “MODULATORS OF A POTASSIUM CHANNEL AND OF TRPV1 CHANNEL AND USES THEREOF” (Bsense Bio Therapeutics Ltd., priority 2023, published 2026).

Read-outs that look alike come from different tables or passages of the source.

One data set has as its target T1, hTRPV1 (Homo sapiens, UniProt Q8NER1).
T1 construct: CDS of NM_080704.4, inserted into the multiple cloning site of pcDNA3.1(+); host or cells: CHO/hKv7.2/3
Description: TRPV1 HCS, Fluo-8 calcium flux, capsaicin activation, CHO cells expressing hTRPV1. It is filed as cell-based. The procedure, abridged: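 CHO cells stably expressing hTRPV1 were seeded 24 h ahead, then exposed to compound in HBSS/HEPES (0.2% DMSO) with Fluo-8 dye for 1.5 h at room temperature before capsaicin was injected. Fluorescence was background-subtracted and normalized to the ionomycin maximum. IC50 came from sigmoidal fits constrained to a 0 minimum and a maximum of about 1.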
For orientation: Calcium flux is commonly read through the fluorescence of an indicator in the cells.

The next data set addresses hERG (Homo sapiens, UniProt Q12809). The experiment in a line: hERG HCS, FLIPR potassium assay, CHO/hERG. The settings on record: for hERG IC50 (inhibition in parentheses): at highest concentration shown. The arrangement: host or cells: CHO. The format is cell-based. As for the experimental part:
Cell culture: Chinese hamster ovary (CHO) cell-line cells with a constitutive expression of human hERG channels (B'SYS GmbH, Switzerland) were cultured in F-12 nutrient mixture (Biological Industries) supplemented with 10% fetal bovine serum (Biological Industries) and 1% penicillin-streptomycin (Biological Industries) in a humidified 5% CO2 incubator at 37° C. To maintain the hERG expression stability of the CHO cell line, antibiotics selection (G418 […] and Hygromycin 500) was applied.
FLIPR Potassium Assay Kit: The FLIPR Potassium Assay Kit (R8222 FLIPR Potassium Assay Explorer Kits, Molecular Devices) was used with CHO/hERG cell line, for screening compounds against the hERG ion-channel off-target, as detailed hereinabove.
According to optimization process, to achieve a uniform and consistent screening condition of molecules, the following protocol was established: Cells were seeded in 384-well, black-walled, clear-bottomed, at a density of 7,500 cells per well 24 hours before the assay conductance and incubated overnight in their normal growth medium. On the experiment day the medium was replaced with HBSS, HEPES, and the tested compound/vehicle (0.2% DMSO). Dye solution (prepared according to the manufacturer) was added to the wells and plates were incubated for 1.5 hour light-protected in room temperature. The Tecan Spark plate-reader injectors were primed with Tl+(1 mM Tl2SO4) or Tl++K+(1 mM Tl2SO4; 10 mM K2SO4) for channel activation and data correction. […]. To calculate IC50 values, the data was fitted to sigmoidal regression using Prism GraphPad.
In general terms: Block of hERG is tested as a sign of cardiac risk.

The nature of data set [1]: Human liver microsome metabolic stability. It is filed as in vitro ADME. To be noted: for half-life at 1 µM: human, liver microsomes, read-out: HLM T1/2; for microsomal CLint at 1 µM: read-out: HLM Clint. In outline: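 Compound at 1 μM was incubated at 37 °C with pooled liver microsomes at 0.5 mg/mL and an NADPH regenerating system (about 1.0 mM). Samples were taken from 0 to 60 min, quenched in cold acetonitrile and quantified by LC-MS/MS against an internal standard. CLint was scaled with species liver weights (rat 40 g/kg, human 20 g/kg).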

The mark [2] stands for this setting: cells expressing TRPV1, read-out: TRPV1 IC50.

T1 sequence (Q8NER1 whole entry): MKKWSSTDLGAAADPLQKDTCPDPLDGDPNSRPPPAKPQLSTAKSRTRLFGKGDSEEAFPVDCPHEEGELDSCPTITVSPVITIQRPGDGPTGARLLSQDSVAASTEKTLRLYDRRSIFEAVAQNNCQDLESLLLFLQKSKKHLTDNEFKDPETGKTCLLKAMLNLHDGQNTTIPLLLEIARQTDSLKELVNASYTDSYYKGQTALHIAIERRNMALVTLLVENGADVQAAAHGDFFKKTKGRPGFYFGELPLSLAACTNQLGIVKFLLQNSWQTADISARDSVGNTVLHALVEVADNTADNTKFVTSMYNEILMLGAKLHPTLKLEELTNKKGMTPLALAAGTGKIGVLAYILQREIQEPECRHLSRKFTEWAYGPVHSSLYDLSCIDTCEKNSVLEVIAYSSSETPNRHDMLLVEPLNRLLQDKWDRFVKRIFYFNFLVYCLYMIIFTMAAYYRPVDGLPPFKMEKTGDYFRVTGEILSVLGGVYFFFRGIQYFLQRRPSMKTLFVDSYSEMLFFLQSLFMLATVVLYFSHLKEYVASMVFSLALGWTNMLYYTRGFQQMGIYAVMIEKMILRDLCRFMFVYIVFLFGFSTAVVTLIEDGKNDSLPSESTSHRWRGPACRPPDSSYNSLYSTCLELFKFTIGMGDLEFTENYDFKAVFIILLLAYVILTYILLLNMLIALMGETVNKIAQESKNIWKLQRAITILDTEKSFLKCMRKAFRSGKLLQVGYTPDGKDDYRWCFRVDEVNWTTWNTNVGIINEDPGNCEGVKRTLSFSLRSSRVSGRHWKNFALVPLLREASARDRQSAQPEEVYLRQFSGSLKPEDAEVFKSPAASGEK
Sequence of hERG (Q12809 whole entry): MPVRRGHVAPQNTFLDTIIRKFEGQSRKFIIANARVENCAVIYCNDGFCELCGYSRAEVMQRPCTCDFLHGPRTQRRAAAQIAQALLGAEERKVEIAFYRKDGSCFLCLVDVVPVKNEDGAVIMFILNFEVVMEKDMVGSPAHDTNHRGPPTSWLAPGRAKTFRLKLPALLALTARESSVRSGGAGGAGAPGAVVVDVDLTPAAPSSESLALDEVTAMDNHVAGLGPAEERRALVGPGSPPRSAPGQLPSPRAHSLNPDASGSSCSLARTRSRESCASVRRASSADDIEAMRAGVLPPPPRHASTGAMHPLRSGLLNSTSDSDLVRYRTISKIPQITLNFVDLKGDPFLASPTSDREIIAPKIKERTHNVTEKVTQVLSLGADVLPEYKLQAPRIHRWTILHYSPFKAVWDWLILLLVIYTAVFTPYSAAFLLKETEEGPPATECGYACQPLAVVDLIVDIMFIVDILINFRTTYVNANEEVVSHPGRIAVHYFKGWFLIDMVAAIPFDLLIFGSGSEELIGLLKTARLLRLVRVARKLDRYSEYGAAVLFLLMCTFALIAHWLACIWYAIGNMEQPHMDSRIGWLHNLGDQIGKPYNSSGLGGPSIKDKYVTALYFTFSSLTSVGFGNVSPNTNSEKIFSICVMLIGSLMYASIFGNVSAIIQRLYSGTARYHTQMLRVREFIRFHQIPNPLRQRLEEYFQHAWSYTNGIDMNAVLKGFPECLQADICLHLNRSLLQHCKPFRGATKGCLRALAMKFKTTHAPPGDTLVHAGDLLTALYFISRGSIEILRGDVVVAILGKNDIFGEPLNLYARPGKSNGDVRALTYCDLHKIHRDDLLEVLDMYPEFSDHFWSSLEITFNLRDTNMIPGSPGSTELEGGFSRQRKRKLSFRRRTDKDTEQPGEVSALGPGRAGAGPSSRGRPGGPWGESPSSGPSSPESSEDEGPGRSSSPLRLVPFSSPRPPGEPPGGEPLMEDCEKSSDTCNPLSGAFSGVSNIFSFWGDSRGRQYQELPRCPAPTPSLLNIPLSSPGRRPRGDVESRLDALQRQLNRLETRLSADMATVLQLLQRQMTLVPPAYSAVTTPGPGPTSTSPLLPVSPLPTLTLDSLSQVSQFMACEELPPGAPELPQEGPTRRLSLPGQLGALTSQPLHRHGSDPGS

`O=C(Cc1cc(-n2cc(Cl)c3cc(Cl)cc(Cl)c32)ccc1F)NCCO` [Compound 627]: the IC50 at hTRPV1 (setting [2]) is 1.9 µM; at hTRPV1 (read-out: CAP hTRPV1 IC50 HCS) it was 1.9 µM; on hERG (Table 1, read-out: hERG IC50), greater than 2.5 µM; against hERG (hERG IC50 HCS), greater than 2.65 µM. In addition, at hERG (Table 1), the “hERG IC50 (inhibition in parentheses)” value is on record as 0%.

Turning to `O=C(Cc1cc(-n2cc(C(F)(F)F)c3cc(Cl)cc(Cl)c32)ncn1)NCCO` [Compound 843], the “HLM and/or Rat PK clearance rates compared to compound 661” value in data set [1] is given as “improved HLM and/or Rat PK clearance rates compared to compound 661”. Further, in data set [1] (human liver microsomes), the half-life at 1 µM is greater than 145 min.

Turning to `O=C(Cc1ccnc(-n2cc(Cl)c3cc(Cl)cc(Cl)c32)n1)N[C@@H]1COC[C@H]1O` [Compound 820], in data set [1], the “HLM and/or Rat PK clearance rates compared to compound 661” value is “improved HLM and/or Rat PK clearance rates compared to compound 661”. For the same molecule, the half-life at 1 µM in data set [1] (human liver microsomes) was found to be 33.8 min.

As for `CC(C)c1cc(Cl)cc(Cl)c1Nc1ccc(F)c(CC(=O)NCC(C)(C)O)c1` [NH91, reference compound], the IC50 on hTRPV1 came out at 8 µM. In data set [1] (human liver microsomes), the half-life at 1 µM worked out at 7.4 min.

Turning to `CC(C)c1cc(Cl)cc(Cl)c1C(=O)c1ccc(F)c(CC(=O)NCC(C)(C)O)c1` [Compound 417-4], the IC50 on hTRPV1 (setting [2]) was 8 µM; at hERG (Table 1, read-out: hERG IC50) it was greater than 35 µM. Also, on hERG (Table 1), the “hERG IC50 (inhibition in parentheses)” value turned out to be 0%. In data set [1] (human liver microsomes), the microsomal CLint at 1 µM is 91.8 µL/min/mg.

`Cc1cn(-c2ccc(F)c(CC(=O)NCC(C)(C)O)c2)c2c(Cl)cc(Cl)cc12` [Compound 421-6]: the IC50 on hTRPV1 (setting [2]) is 2.1 µM; at hERG (Table 1, read-out: hERG IC50), greater than 2.5 µM. Besides, the “hERG IC50 (inhibition in parentheses)” value on hERG (Table 1) turned out to be 0%. In addition, in data set [1] (human liver microsomes, 1 µM), the “HLM Clint” value came out at 55.5 µL/min/mg.

On to `O=C(Cc1nccc(-n2cc(Cl)c3cc(Cl)cc(Cl)c32)n1)NC1COCC1O` (stereo not drawn) [Compound 760], for which, on hERG, the “hERG activity” value is “lacks any effect on hERG and Kv7.3/4/5 activity below 10 μM”. The IC50 at hERG (human, cho/herg cells, Thallium ions (Tl+) fluorescence, read-out: hERG EC50) stood at 33.4 µM. In data set [1], the “HLM and/or Rat PK clearance rates compared to compound 661” value is on record as “improved HLM and/or Rat PK clearance rates compared to compound 661”.

`Cc1cn(-c2ccc(F)c(CC(=O)NCC(C)(C)O)c2)c2c(Cl)cc(Cl)cc12` [Compound 421]: the IC50 on hTRPV1 was 1.8 µM. On hERG (hERG IC50 HCS), the IC50 was greater than 2.5 µM. Further, in data set [1] (human liver microsomes), the CLint scaled at 1 µM was 50 mL/min/kg and the half-life at 1 µM amounted to 25 min.

With `O=C(Cc1cncc(-n2cc(Cl)c3cc(Cl)cc(Cl)c32)c1)N[C@@H]1COC[C@H]1O` [Compound 661], the IC50 at hTRPV1 was 19 µM; at hTRPV1 (setting [2]), 19.3 µM; on hTRPV1 (read-out: CAP hTRPV1 IC50 HCS) it was 19.1 µM; on hERG (Table 1, read-out: hERG IC50), greater than 16.6 µM; on hERG (hERG IC50 HCS), 18.7 µM. The “hERG activity” value on hERG is listed as “no measurable activity at any concentration tested”. Further, the “hERG IC50 (inhibition in parentheses)” value on hERG (Table 1) is recorded as 0%. Further, the CLint scaled at 1 µM in data set [1] (human liver microsomes) is 64.8 mL/min/kg. Further, in data set [1] (human liver microsomes, 1 µM), the “HLM T1/2” value is 19.3 min. The microsomal CLint at 1 µM in data set [1] (human liver microsomes) came out at 72 µL/min/mg. The half-life at 1 µM in data set [1] (human liver microsomes) turned out to be 19.2 min.

Take `COC[C@@H](CO)NC(=O)Cc1cc(Sc2c(Cl)cc(F)cc2C(C)C)ccc1F` [Compound 415]: the IC50 on hTRPV1 is 7.8 µM; at hTRPV1 (setting [2]), 7.7 µM; at hERG (Table 1, read-out: hERG IC50), greater than 23 µM. Moreover, the “hERG IC50 (inhibition in parentheses)” value at hERG (Table 1) is 0%. Further, in data set [1] (human liver microsomes), the microsomal CLint at 1 µM is 839 µL/min/mg.

As usually defined, the CLint scaled is the rate of metabolic loss divided by the concentration.
